In patent publication US11207299B2, “Biphenyl sulfonamide compounds for the treatment of type IV collagen diseases” (Travere Therapeutics, Inc., priority 2018, dated 2021):
Entries after “also recorded” stand apart in the source; their conditions may differ. Marks after values point to notes of the source that are not given here.

Assays:
[1] = test system: autosomal Alport mice (COL4A3^−/−); assay: Late intervention study in Alport mice (treated from 5-7 weeks of age); type: in vivo, mouse
From the text: (§1) Vehicle or sparsentan was given daily by oral gavage to autosomal Alport mice (COL4A3^−/−) on the 129/Sv background (male and female) in five separate studies: a pilot study, an early intervention study (treated from 3-7 weeks of age), a late intervention study (treated from 5-7 weeks of age after the onset of glomerular (GM) changes), a lifespan study, and a hearing study (FIG. 1). The early intervention, late intervention, lifespan, and hearing studies also included mice treated with a comparator, losartan, which was given orally at 3-4 weeks of age in the early intervention study, in drinking water at 4-7 weeks of age in the early intervention study, and in drinking water at 5-7 weeks in the late intervention study.
(§2) Efficacy renal endpoints included blood urea nitrogen (BUN), proteinuria (urine protein to creatinine ratio, or UP/C), glomerulosclerosis, tubulointerstitial fibrosis, leucocyte infiltration, and glomerular basement morphology (GBM) using transmission electron microscopy (TEM). Endpoints in the inner ear included auditory brain stem response (ABR) threshold as a measure of noise-induced hearing loss, strial capillary basement membrane thickness, and inner ear pathology by TEM.
In the late intervention study, wild-type or Alport mice (8 mice per group) were dosed for 14 days according to the same methods used in the early intervention study but beginning at 5 weeks of age, i.e., dosed with vehicle, 120 mg/kg of sparsentan, or 10 mg/kg losartan starting at 5 weeks of age for 14 days. In this study, untreated Alport mice at 5 weeks of age were also used as baseline controls.
(§3) For the pilot, early intervention, late intervention, and lifespan studies, spot urine was sampled pre-study and weekly during treatment and analyzed for protein (UP) and creatinine (C) to determine proteinuria (UP/C). At the end of each study the animals were euthanized, blood samples were taken, BUN was measured from serum, and kidneys were harvested for structural and immuno-fluorescent measurements. Glomerulosclerosis was assessed by immunofluorescence (IF) using an antibody to fibronectin (FN). Visual counting of the number of sclerotic glomeruli as a proportion of the total number of glomeruli per slide was used to calculate the percentage of sclerotic glomeruli. Sections were co-stained with an anti-CD45 antibody to indicate leucocyte infiltration. Tubulointerstitial fibrosis was determined by IF of kidney sections using an antibody to collagen 1 (COL1). Tubulointerstitial fibrosis (TIF) scoring was conducted by visual assessment of the COL1 positive area as a percentage of the total cortical area and was performed blinded. The fibrosis scoring (“Fibrosis Score”) was categorized according to visual judgment of percentage of total cortical area, as: 0=<5%, 1=5-10%, 2=10-25%, 3=25-50%, 4=50-75%, or 5=75-100%. Ultrastructural changes in GBM and podocyte morphology were observed using transmission electron microscopy (TEM).
For a baseline comparison for late intervention, glomerulosclerosis and fibrosis were determined in kidney samples taken from 5-week-old untreated Alport mice.

[2] = test system: autosomal Alport mice (COL4A3^−/−); assay: Lifespan study in Alport mice; type: in vivo, mouse; details: dosing as in early intervention study, continued until 10% loss of peak body weight; P<0.05
From the text: as §1
In the lifespan study, Alport mice (n=10) were dosed using the same methodology as in the early intervention study, except that dosing was continued until mice had lost 10% of their peak body weight, after which they were euthanized.
For the pilot, early intervention, late intervention, and lifespan studies, spot urine was sampled pre-study and weekly during treatment and analyzed for protein (UP) and creatinine (C) to determine proteinuria (UP/C). At the end of each study the animals were euthanized, blood samples were taken, BUN was measured from serum, and kidneys were harvested for structural and immuno-fluorescent measurements. Glomerulosclerosis was assessed by immunofluorescence (IF) using an antibody to fibronectin (FN). Visual counting of the number of sclerotic glomeruli as a proportion of the total number of glomeruli per slide was used to calculate the percentage of sclerotic glomeruli. Sections were co-stained with an anti-CD45 antibody to indicate leucocyte infiltration. Tubulointerstitial fibrosis was determined by IF of kidney sections using an antibody to collagen 1 (COL1). Tubulointerstitial fibrosis (TIF) scoring was conducted by visual assessment of the COL1 positive area as a percentage of the total cortical area and was performed blinded. […]

[3] = test system: autosomal Alport mice (COL4A3^−/−); assay: Early intervention study in Alport mice (treated from 3-7 weeks of age); type: in vivo, mouse
From the text: as §1, §2
In the early intervention study, wild-type and Alport mice were dosed daily by oral gavage with vehicle or sparsentan at 120 mg/kg from 3 to 7 weeks of age (7-8 mice per group), or with losartan at 20 mg/kg by oral gavage from 3-4 weeks of age (during weaning) and 10 mg/kg in drinking water from 4-7 weeks of age.
as §3

[4] = test system: laminin α2 in stria of Alport mice; assay: Immunofluorescence of laminin α2 in stria of Alport mice; type: in vivo, mouse; details: losartan-treated Alport mice (10 mg/kg), early intervention study
Procedure: In the pilot study, designed to determine an optimal efficacious dose of sparsentan, Alport mice (3-4 per group) were dosed with vehicle (0.5% methylcellulose 4000 cps/0.25% Tween® 80 in distilled water) or sparsentan at 60 mg/kg or 200 mg/kg from 3 to 7 weeks of age for 28 days. Although 200 mg/kg sparsentan was efficacious in the pilot study, BUN levels were higher than those of Alport mice dosed with 60 mg/kg sparsentan (Table 1; FIG. 2A; FIG. 2B). This observation led to the selection of a 120 mg/kg dose of sparsentan to take forward into the early intervention study. During the pilot study, blood pressure (BP) was measured weekly using the CODA2 tail cuff system. […]
For the hearing study, wild-type or Alport mice were treated according to daily from 3-8.5 weeks of age by oral gavage with vehicle (0.5% methylcellulose 4000 cps/0.25% Tween® 80 in distilled water) or 120 mg/kg sparsentan or losartan at 20 mg/kg by oral gavage from 3-4 weeks of age (during weaning) and 10 mg/kg in drinking water from 4-7 weeks of age (n=5). The progression of Alport disease was assessed at 7 weeks of age by the amount of proteinuria (via urinalysis reagent strips—data not shown). […] Hearing ability and sensitivity to noise were assessed between 7 and 8 weeks of age by Auditory Brainstem Response (ABR), pre-noise exposure. […]

[5] = test system: autosomal Alport mice (COL4A3^−/−); assay: Hearing study in Alport mice (ABR, noise exposure, strial capillary basement membrane TEM); type: in vivo, mouse
From the text: as §1, §2
For the hearing study, wild-type or Alport mice were treated according to daily from 3-8.5 weeks of age by oral gavage with vehicle (0.5% methylcellulose 4000 cps/0.25% Tween® 80 in distilled water) or 120 mg/kg sparsentan or losartan at 20 mg/kg by oral gavage from 3-4 weeks of age (during weaning) and 10 mg/kg in drinking water from 4-7 weeks of age (n=5). The progression of Alport disease was assessed at 7 weeks of age by the amount of proteinuria (via urinalysis reagent strips—data not shown). Strial capillary basement membrane (SCBM) width was analyzed by transmission electron microscopy (TEM), and accumulation of extracellular matrix (ECM) in SCBM was determined by immunofluorescence (IF) microscopy using an antibody to laminin α2. Hearing ability and sensitivity to noise were assessed between 7 and 8 weeks of age by Auditory Brainstem Response (ABR), pre-noise exposure. A subset of each treatment group was then exposed to a metabolic noise stress for 10 hours. Mice receiving the noise treatment were randomly selected for overstimulation with a 106 dB sound pressure level (SPL), narrow band noise (8-16 kHz) for 10 hours, usually 10 PM to 8 AM. The noise exposure was conducted in a sound-isolation booth. A speaker was suspended from the ceiling. Wire cages with individual compartments were located midway between the floor and speaker. Mice were hydrated prior to placement in the cage and were provided free access to food. The noise exposure occurred at 8 weeks of age. The amount of hearing loss caused by the metabolic noise exposure was determined 5 days post-exposure.

[6] = test system: murine models of Alport syndrome; details: cited from earlier work; for Glomerulosclerosis and interstitial fibrosis in murine models of Alport syndrome: literature (Dufek et al. 2016; Gross et al. 2003)
[7] = Alport mice late intervention, losartan 10 mg/kg, mean ± SD
[8] = Alport mice, losartan 20/10 mg/kg, at 7 wk of age, mean ± SD

CCCCc1nc(Cl)c(CO)n1Cc1ccc(-c2ccccc2-c2nnn[nH]2)cc1 [losartan, Losartan, reference compound]
UP/C ([1]; Alport mice late intervention, losartan 10 mg/kg for 14 days from 5 wk of age, mean ± SD, n = 8): 18.1 ± 4.6 mg/mg
BUN [1, 7]: 15.5 ± 3.4 mg/dL
GS (% Sclerotic glomeruli) [1, 7]: 16.0 ± 11.9*^$ %
TIF ([1]; Alport mice late intervention, losartan 10 mg/kg, tubulointerstitial fibrosis score, mean ± SD): 1.0 ± 1.2
UP/C and fibrosis vs. vehicle-treated Alport mice ([1]; losartan 10 mg/kg, late intervention): not significant
Attenuation of BUN and glomerulosclerosis vs. vehicle-treated Alport mice ([1]; losartan 10 mg/kg, late intervention, P<0.05): significant
Development of fibrosis, CD45^+ leucocyte infiltration, and glomerulosclerosis ([1]; sparsentan 120 mg/kg or losartan 10 mg/kg, 5-7 weeks of age): attenuated; also recorded: prevented
Lifespan compared to vehicle-treated Alport mice [2]: significantly longer; also recorded: significantly greater
UP/C ([3]; Alport mice, losartan 20/10 mg/kg from 3 wk, at 4 wk of age, mean ± SD, n = 8): 0.6 ± 1.3 mg/mg
UP/C ([3]; Alport mice, losartan 20/10 mg/kg, at 5 wk of age, mean ± SD): 6.7 ± 4.0 mg/mg
UP/C ([3]; Alport mice, losartan 20/10 mg/kg, at 6 wk of age, mean ± SD): 11.2 ± 5.7 mg/mg
BUN [3, 8]: 18.2 ± 3.5 mg/dL
Sclerotic Glomeruli (%) [3, 8]: 1.7 ± 3.3 %
UP/C [3, 8]: 11.5 ± 7.0 mg/mg
Fibrosis Score ([3]; Alport mice, losartan 20/10 mg/kg, at 7 wk, score 0=<5% to 5=75-100% COL1 area, mean ± SD): 0.0 ± 0.0
Development of nephropathy in Alport mice ([3]; sparsentan 120 mg/kg 28 days or losartan 20 mg/kg 7 days then 10 mg/kg 21 days, from 3 weeks of age): prevented
UP/C, BUN, glomerulosclerosis, and fibrosis vs. vehicle-treated Alport mice ([3]; sparsentan 120 mg/kg or losartan 20/10 mg/kg from 3 weeks of age, P<0.05): significant attenuation
TIF or glomerulosclerosis ([3]; sparsentan- or losartan-treated Alport mice, early intervention): little to no
Accumulation of laminin α2 in stria [4]: did not appear different from vehicle-treated Alport mice
Hearing ability before noise exposure (ABR) ([5]; 7-8-week-old mice, sparsentan 120 mg/kg or losartan 20/10 mg/kg): did not differ significantly
Increase in strial capillary basement membrane width observed in vehicle-treated Alport mice ([5]; Alport mice treated 3-8.5 weeks of age with sparsentan or losartan): prevented
mean SCBM width±SD ([5]; Alport mice, losartan 20/10 mg/kg from 3 weeks of age, TEM, n=5): 55.0±5.9 nm
Hearing loss after noise exposure vs vehicle-treated Alport mice ([5]; any frequency tested, losartan 20/10 mg/kg): no significant effect; also recorded: no significant difference
Stria vascularis pathology by TEM ([5]; treated Alport mice, FIGS. 14-23): variable pathology

Cc1cc2c(cc1CC(=O)c1sccc1S(=O)(=O)Nc1onc(C)c1Cl)OCO2 [sitaxentan]
Glomerulosclerosis and interstitial fibrosis in murine models of Alport syndrome [6]: ameliorate
Basement membrane in the cochlea of the ear in Alport mice ([6]; literature (Meehan et al. 2016)): protect

CCOC(=O)[C@H](CCc1ccccc1)N[C@@H](C)C(=O)N1[C@H](C(=O)O)C[C@@H]2CCC[C@@H]21 [ramipril]
Glomerulosclerosis and interstitial fibrosis in murine models of Alport syndrome [6]: ameliorate
